# Key:
# [1] = tested on: SK-N-BE(2)-C cells; assay: Colony formation assay in neuroblastoma cells; type: cell-based, human; conditions: 5 and 10 μM, treatment 96 h, then 6 days without treatment
# Description: In order to measure the functional consequence of HDAC8 inhibition, two different cell lines were used: SK-N-BE(2)-C cells, which display MYCN amplification and non-functional p53; and IMR-32 cells having p53 wild type, which both respond with growth arrest and signs of neuronal differentiation upon knockdown or selective inhibition of HDAC8. Growth arrest was determined by colony formation and viability assays. Cells were treated with 5 and 10 μM of each of the CRBN_ based HDAC8 PROTACs having a triazole linker (CRBN_1d, CRBN_1e, CRBN_1f) for 96 h, followed by culturing for another 6 days without treatment (Figure 5A). This assesses whether the treatment impairs the clonogenic growth capacity of tumor cells, indicating effectiveness of compounds on the survival and proliferation of tumor cells.
# In six-well plates, 500 cells were seeded and treated as indicated. Viable colonies were stained after a minimum of 10 days with crystal violet. For quantification, the mean intensity of each well of the 8-bit binary picture was measured with ImageJ software (U. S. National Institutes of Health, Bethesda, MD, USA; http://imagej.nih.gov/ij/ (accessed on 1 March 2022)).
# (§1) Figure 5 (A) Neuroblastoma SK-N-BE(2)-C cells; Colony Assay, 10 days (compound treatment within first 96 h). Stained with crystal violet and quantified with ImageJ. (B,C) Trypan Blue assay for detection of dead cells. Neuroblastoma IMR-32 cells were either treated with 5 µM (B) or 10 µM (C). (D,E) Cell proliferation assessed via counting of viable cells. IMR-32 cells were either treated with 5 µM (D) or 10 µM (E) PROTACs. HDAC8i PCI-34501 served as a positive control, untreated (MEM) and solvent (DMSO) treated cells served as negative controls.
# [2] = tested on: IMR-32 cells; assay: Cell viability / proliferation (trypan blue, viable cell count) in neuroblastoma cells; type: cell-based, human; conditions: 5 and 10 µM
# Description: Moreover, we treated neuroblastoma IMR-32 cells with the remaining PROTACs and counted the resulting viable cells. We quantified the percentage of dead cells as shown in (Figure 5B,C). In addition, cell proliferation was assessed via counting of viable cells (Figure 5D,E). […] As reference, the HDAC8 inhibitor PCI-34501 was used.
# Adherent cells were detached using trypsin–EDTA (ThermoFisher Scientific, Bremen, Germany) and pooled with corresponding supernatant, centrifuged, and resuspended in 1 mL of cell culture medium. Cell viability (viable cell number, % viability, % dead cells) was measured by automated trypan blue staining using the Vi-Cell XR Cell Viability Analyzer (Beckman Coulter, Krefeld, Germany).
# as §1
# [3] = target: T1, HDAC8 (Homo sapiens, UniProt Q9BY41); assay: In vitro HDAC8 activity assay (Fluor de Lys-HDAC8); type: biochemical; design: made in house; conditions: for IC50: Table 1, PROTACs
# T1 sequence (Q9BY41 1-377): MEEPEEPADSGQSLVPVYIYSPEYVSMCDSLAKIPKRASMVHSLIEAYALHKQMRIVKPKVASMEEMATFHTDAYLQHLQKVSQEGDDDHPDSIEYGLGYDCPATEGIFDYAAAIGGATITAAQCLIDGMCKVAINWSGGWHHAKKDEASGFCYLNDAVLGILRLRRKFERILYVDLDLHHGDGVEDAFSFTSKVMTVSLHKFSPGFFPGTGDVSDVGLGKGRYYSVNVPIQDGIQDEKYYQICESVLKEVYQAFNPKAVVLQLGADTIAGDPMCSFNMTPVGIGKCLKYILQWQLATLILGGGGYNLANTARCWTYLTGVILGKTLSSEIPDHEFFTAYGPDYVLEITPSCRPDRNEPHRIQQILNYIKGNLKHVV
# Description: Recombinant hHDAC8 was produced by Romier et al. in Strasbourg. The HDAC8 activity assays were performed according to the commercial HDAC8 Fluorometric Drug Discovery Kit (Fluor de Lys(R)-HDAC8, BML-KI178) corresponding to the instructions of the manufacturer. As substrate a tetrapeptide connected to aminomethylcoumarin (AMC) H2N-Arg- His-Lys(Ac)-Lys(Ac)-AMC was synthesized as previously described. The enzyme was incubated for 90 min at 37 °C, with a substrate concentration of 50 µM and increasing concentrations of inhibitors. The stop-solution-containing inhibitor was added to stop the hHDAC8 activity, and Trypsin was added to release the AMC. The solution was incubated for 20 min at 37 °C to develop the assay.
# (§2) Inhibition was measured at increasing concentration and IC50 was calculated by nonlinear regression with Origin 9.0G software.
# [4] = target: HDAC1 (Homo sapiens, UniProt Q13547); assay: In vitro HDAC inhibitory activity assay, recombinant HDAC1 (fluorogenic substrate ZMAL); type: biochemical; design: purchased BPS Biosciences
# HDAC1, sequence (Q13547 whole entry): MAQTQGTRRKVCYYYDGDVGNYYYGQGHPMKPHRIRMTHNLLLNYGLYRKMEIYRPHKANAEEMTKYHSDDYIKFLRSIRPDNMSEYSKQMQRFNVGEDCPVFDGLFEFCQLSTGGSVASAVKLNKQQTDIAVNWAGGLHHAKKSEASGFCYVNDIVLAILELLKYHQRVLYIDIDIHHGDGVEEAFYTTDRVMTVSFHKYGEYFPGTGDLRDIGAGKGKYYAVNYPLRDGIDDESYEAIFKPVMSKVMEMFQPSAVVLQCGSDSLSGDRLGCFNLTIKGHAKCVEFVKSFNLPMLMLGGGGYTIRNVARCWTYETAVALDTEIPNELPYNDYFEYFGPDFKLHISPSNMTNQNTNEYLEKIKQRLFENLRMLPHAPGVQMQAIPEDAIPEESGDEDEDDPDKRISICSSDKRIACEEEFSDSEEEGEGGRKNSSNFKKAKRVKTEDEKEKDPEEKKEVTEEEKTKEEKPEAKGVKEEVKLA
# Description: The in vitro testing on recombinant HDACs was performed as previously described. Recombinant human HDAC1 and −6 were purchased from BPS Biosciences. The enzyme inhibition was determined by using a reported homogenous fluorescence assay. […] Fluorescence intensity was measured at an excitation wavelength of 390 nm and an emission wavelength of 460 nm in a microtiter plate reader (BMG Polarstar).
# as §2
structure (smiles),measurement,setting,value
COc1ccc(C(=O)NO)cc1NC(=O)c1ccc(NC(=O)CCCCCCCNc2cccc3c2C(=O)N(C2CCC(=O)NC2=O)C3=O)cc1 (stereo not shown) [CRBN_1b],Effect on colony formation,[1],significantly decreased the ability to form colonies
same,Effect in cell proliferation assay (viable cell count),[2],strongest effect
same,IC50,[3],810 ± 170 nM
same,SI (HDAC6/HDAC8),"[3]; selectivity index, HDAC6 over HDAC8",0.7
same,IC50,[4],> 20000 nM
COC(=O)c1ccc(C)c(NCc2ccc(OCc3cn(CCCCCC(=O)Nc4cccc5c4C(=O)N(C4CCC(=O)NC4=O)C5=O)nn3)cc2)c1 (stereo not shown) [33a],Effect on colony formation,[1],inactive
same,HDAC8 inhibitory activity,[3]; negative control,did not demonstrate a strong inhibitory activity
same,HDAC1 inhibitory activity,[4]; negative control,did not demonstrate a strong inhibitory activity
O=C(COc1ccc(CNc2cc(C(=O)NO)ccc2Cl)cc1)NCCCCCNC(=O)CC12CC3CC(CC(C3)C1)C2 [HyT_1p],Effect on colony formation,[1],significantly decreased the ability to form colonies
same,Effect in cell proliferation assay (viable cell count),[2],strongest effect
same,IC50,[3],750 ± 90 nM
same,inhibition at 1 µM,"[4]; 1 µM, read-out: HDAC1 % inhib. at given conc.",2.3%
same,inhibition at 10 µM,"[4]; 10 µM, read-out: HDAC1 % inhib. at given conc.",40%

# Reference: article PMC9322761, “Design, Synthesis and Biological Characterization of Histone Deacetylase 8 (HDAC8) Proteolysis Targeting Chimeras (PROTACs) with Anti-Neuroblastoma Activity” (International Journal of Molecular Sciences, 2022)
